For the series, the system named is Caco2 cells. The experiment in a line: In vitro cytotoxicity MTT assay. The conditions noted are these: DIC concentration 100 μg mL^−1, 48 h. The class given is cell-based, human. Here is the method:
For cell studies, human colon cancer cell line Caco2 cells (Shanghai Institute of Biochemistry and Cell Biology, Chinese Academy of Sciences, Shanghai, China) were cultured in DMEM medium supplemented with 10% FBS, 100 U mL^−1 penicillin, and 100 μg mL^−1 streptomycin at 37 °C under an atmosphere of 5% CO2 and 95% relative humidity. In vitro cytotoxicity of free DIC, blank micelles and DIC-encapsulated micelles were evaluated by 3-(4,5-dimethylthiazol-2-yl)-2,5-diphenyltetrazolium bromide (MTT) assay. Caco2 cells were planted in 96-well plate at a density of 5 × 10^3 cells per well and cultured for another 24 h. The cells were treated with free DIC, PCS/DIC micelles, PCS + DIC mixture, SPCS/DIC micelles and SPCS + DIC mixture at a range of DIC concentrations (0.001–100 μg mL^−1), or PCS and SPCS blank micelles at equivalent concentrations of corresponding drug-loaded micelles for 48 h. Thereafter, 20 µL of MTT solution (5 mg mL^−1) was added to each well and incubated with cells for another 4 h at 37 °C. The culture medium was then removed, and the formed dark blue formazan crystals were dissolved with 100 µL of DMSO. The absorbance at 570 nm was recorded using a microplate reader (EL800, BIO-TEK Instruments Inc., USA). Untreated cells were used as control, and cell viability (%) was calculated according to Eq. (3).3 Cellviability(%)=Atest/Acontrol×100%

Take `N#CC(c1ccc(Cl)cc1)c1c(Cl)cc(-n2ncc(=O)[nH]c2=O)cc1Cl` (stereo not shown) [Free DIC, Diclazuril]: the cells survived result is listed as “less than 10%”.

(Values after publication PMC7770674, “A Combinative Assembly Strategy Inspired Reversibly Borate-Bridged Polymeric Micelles for Lesion-Specific Rapid Release of Anti-Coccidial Drugs” (Nano-Micro Letters, 2020).)
